Source: patent US20080112933A1 (priority 2004, published 2008)

How the values were obtained:
[1] = tested on: hematopoietic progenitor cells; details: mouse, in vivo
[2] = tested on: hematopoietic progenitor cells; details: mouse, in vivo; remark: listed apart in the source
[3] = tested on: bone marrow MNCs; experiment: Long-term culture-initiating cell (LTC-IC) assay of treated bone marrow MNCs; details: treated bone marrow mononuclear cells; FIG. 4; taken as showing no myelotoxicity
[4] = target: Gαs (Mus musculus, UniProt P63094); experiment: Gαs activity measured by cAMP production in bone marrow mononuclear cells; details: bone marrow mononuclear cells treated with the agent; FIG. 3
Chain of Gαs (P63094 whole entry): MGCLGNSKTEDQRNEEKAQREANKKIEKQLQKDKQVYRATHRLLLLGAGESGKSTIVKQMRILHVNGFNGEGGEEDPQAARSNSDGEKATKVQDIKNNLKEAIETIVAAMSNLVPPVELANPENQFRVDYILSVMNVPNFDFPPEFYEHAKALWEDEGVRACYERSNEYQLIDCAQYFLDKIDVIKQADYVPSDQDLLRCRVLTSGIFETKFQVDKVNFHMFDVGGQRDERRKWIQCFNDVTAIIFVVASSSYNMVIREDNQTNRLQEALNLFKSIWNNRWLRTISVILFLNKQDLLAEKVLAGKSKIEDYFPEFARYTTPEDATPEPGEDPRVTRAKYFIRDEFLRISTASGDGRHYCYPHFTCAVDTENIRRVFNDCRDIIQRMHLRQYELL

[5] = tested on: bone marrow MNCs; experiment: Competitive repopulation assay with treated bone marrow MNCs; assay type: in vivo, mouse; details: treated CD45.1 BM MNCs injected with equal number of CD45.2 BM MNCs into lethally irradiated CD45.2 mice; flow cytometry eight weeks after injection; FIG. 8
Procedure: In these experiments CD45.1 cells were either treated with suramin or untreated. They were then injected with an equal number of CD45.2 whole BM MNCs into lethally irradiated CD45.2 mice. Eight weeks following injection the contribution to bone marrow hematopoiesis of the untreated or treated cells was analyzed by flow cytometry.

[6] = tested on: bone marrow mononuclear cells; experiment: CFU-C assay of treated bone marrow mononuclear cells; details: taken as showing no myelotoxicity

Compound	engraftment potential: contribution in competitive transplants [1]	increase in the number of cells homing to the bone marrow [2]	ability of the cells to perform in LTC-IC assay [3]	cAMP production (indicative of Gαs signaling) [4]	ability to engraft and establish hematopoiesis in the bone marrow [5]	ability of the cells to perform in CFU-C assay [6]
cholera toxin	enhanced contribution in competitive transplants	~75%				
Cc1ccc(C(=O)Nc2ccc(S(=O)(=O)O)c3cc(S(=O)(=O)O)cc(S(=O)(=O)O)c23)cc1NC(=O)c1cccc(NC(=O)Nc2cccc(C(=O)Nc3cc(C(=O)Nc4ccc(S(=O)(=O)O)c5cc(S(=O)(=O)O)cc(S(=O)(=O)O)c45)ccc3C)c2)c1 [suramin]			did not result in any impairment	reduction in the cAMP production	reduction in their ability to engraft and establish hematopoiesis in the bone marrow	did not result in any impairment
